{"source": "patent US20100190980A1", "about": "“PYRAZINAMIDE COMPOUND” (Taisho Pharmaceutical Co., Ltd, priority 2007, published 2010)", "key": {"human liver GK": {"molecular_target": "T1, human liver GK (Homo sapiens, UniProt P35557)", "T1 construct": "GST (Glutathione S-transferase) (N); made in house; host or cells: Escherichia coli", "T1 sequence (P35557 1-466 isoform P35557-2)": "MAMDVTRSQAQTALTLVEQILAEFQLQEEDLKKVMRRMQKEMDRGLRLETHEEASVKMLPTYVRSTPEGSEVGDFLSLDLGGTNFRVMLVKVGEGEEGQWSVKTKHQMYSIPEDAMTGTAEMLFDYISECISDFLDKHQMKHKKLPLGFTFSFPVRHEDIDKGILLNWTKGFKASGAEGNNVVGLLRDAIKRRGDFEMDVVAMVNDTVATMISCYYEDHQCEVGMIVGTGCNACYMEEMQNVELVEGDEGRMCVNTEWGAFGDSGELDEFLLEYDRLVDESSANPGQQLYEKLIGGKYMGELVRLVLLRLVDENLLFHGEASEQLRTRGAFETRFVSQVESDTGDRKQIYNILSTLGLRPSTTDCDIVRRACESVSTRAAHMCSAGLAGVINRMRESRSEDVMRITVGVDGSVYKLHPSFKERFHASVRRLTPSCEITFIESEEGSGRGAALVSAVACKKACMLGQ", "experiment": "GK Activation Test", "type": "biochemical", "details": "4 mM 14C-labeled glucose; for EC50: concentration activating GK to 50% of the maximum activation value", "experimental": "A GK activation by a test compound was tested by partially modifying the method of Irwin A. Rose et al. (J. Biol. Chem. 1964 January; 239: 12-7).\nThe enzyme source used in this assay was human liver GK, which was allowed to express by Escherichia coli as a fusion protein having GST (Glutathione S-transferase) added to the amino terminal and purified by Glutathione Sepharose 4B (Amersham Biosciences).\nThe test was performed by using flat-bottom 96-well plates (Sumitomo Bakelite Co., Ltd). To each of the wells of plates, a dimethyl sulfoxide (DMSO) solution of a test compound and DMSO serving as a control were added so as to obtain a final DMSO concentration of 1%. Furthermore, 25 mM Hepes-KOH (pH=7.1), 25 mM KCl, 2 mM MgCl2, 2 mM ATP, 4 mM ^14C-labeled glucose (Amersham Pharmacia) and 1 mM DTT (dithiothreitol) (these concentrations were final concentrations) were added. Finally, human liver GK was added so as to obtain 0.24 μg/well. The reaction was initiated and carried out at room temperature.\nTwenty minutes later, AG1-X4 resin (BioRad), which was suspended with 25 mM Hepes-KOH (pH=7.1), was added and allowed to bind a reaction product, a labeled glucose-6-phosphate. The whole quantity was transferred to a multi-screen plate (Millipore) and the resin was washed with water. Thereafter, labeled glucose-6-phosphate bound to the resin was eluted with a 0.5 M NaCl solution. The activity of the labeled glucose-6-phosphate eluted was measured and used as an index of GK activity.\nRegarding the GK activity of a control group in a well in which DMSO alone was added as 100%, the GK activity activated by the test compound to a maximum was indicated as the maximum activation value (Emax value). Furthermore, the concentration of a test compound required for activating GK activity to 50% of the maximum activation value was indicated as an EC50 value."}, "SD rats": {"tested_on": "SD rats", "experiment": "Blood Glucose Level-Lowering Effect in SD rats", "type": "in vivo, rat", "details": "oral, 0.5% methyl cellulose group = 100%", "experimental": "The effect of the compound of the present invention to decrease blood glucose level was investigated by use of SD rats.\nSD rats were raised by free-feeding. From the caudal vein of 8-week old […], blood was taken and centrifugally separated to obtain the plasma. A blood glucose level of the plasma was measured by glucose CII test Wako. The rats were divided into groups of 6 rats so as to have the same average blood glucose level. In an agent administration group, a compound suspended in a 0.5% aqueous methyl cellulose solution was orally administered to the rats; whereas, in a control group, a 0.5% aqueous methylcellulose solution was orally administered. At 30 minutes, 60 minutes, 120 minutes, 240 minutes, 360 minutes and 480 minutes after the administration, blood was taken from the caudal vein of each rat. The plasma was centrifugally recovered and a blood glucose level was measured by use of glucose CII test Wako. Furthermore, a plasma insulin concentration was measured by an ultrasensitive rat insulin measuring kit (Morinaga Institute of Biological Science, Inc.). The blood glucose levels at individual time points were plotted to obtain a graph showing a change of blood glucose level.\nRegarding the blood glucose level of the 0.5% methyl cellulose administration group as 100%, the blood glucose level of SD rats administrated with Compound No. 2 was indicated. In a 3 mg/kg administration group, the blood glucose level was 59% at 1 hour, 71% at 2 hours and 76% at 4 hours. Whereas, in a 10 mg/kg administration group, the blood glucose level was 53% at 1 hour, 68% at 2 hours, and 75% at 4 hours."}}}
{"smiles": "O=C(O)c1ccc(NC(=O)c2nc(Sc3nnc[nH]3)cnc2Sc2ccc(F)cc2)nc1", "note": "[Compound No. 35, 6-[({3-[(4-fluorophenyl)sulfanyl]-6-(4H-1,2,4-triazol-3-ylsulfanyl)pyrazin-2-yl}carbonyl)amino]pyridine-3-carboxylic acid]", "values": [{"measurement": "EC50", "setting": "human liver GK", "result": 72.4, "unit": "nM"}]}
{"smiles": "COc1ccc(Sc2ncc(Sc3nnc[nH]3)nc2C(=O)Nc2cnccn2)cc1", "note": "[Compound No. 46, 3-[(4-methoxyphenyl)sulfanyl]-N-pyrazin-2-yl-6-(4H-1,2,4-triazol-3-ylsulfanyl)pyrazine-2-carboxamide]", "values": [{"measurement": "EC50", "setting": "human liver GK", "result": 59.4, "unit": "nM"}]}
{"smiles": "Cn1ccc(NC(=O)c2nc(Sc3nnc[nH]3)cnc2Sc2ccc(F)cc2)n1", "note": "[Compound No. 2, 3-[(4-fluorophenyl)sulfanyl]-N-(1-methyl-1H-pyrazol-3-yl)-6-(4H-1,2,4-triazol-3-ylsulfanyl)pyrazine-2-carboxamide]", "values": [{"measurement": "EC50", "setting": "human liver GK", "result": 104, "unit": "nM"}, {"measurement": "blood glucose level", "setting": "SD rats; 3 mg/kg, at 1 hour", "result": 59, "unit": "%"}, {"measurement": "blood glucose level", "setting": "SD rats; 3 mg/kg, at 2 hours", "result": 71, "unit": "%"}, {"measurement": "blood glucose level", "setting": "SD rats; 3 mg/kg, at 4 hours", "result": 76, "unit": "%"}, {"measurement": "blood glucose level", "setting": "SD rats; 10 mg/kg, at 1 hour", "result": 53, "unit": "%"}, {"measurement": "blood glucose level", "setting": "SD rats; 10 mg/kg, at 2 hours", "result": 68, "unit": "%"}, {"measurement": "blood glucose level", "setting": "SD rats; 10 mg/kg, at 4 hours", "result": 75, "unit": "%"}]}
{"smiles": "Cn1ccc(NC(=O)c2nc(Sc3nnc[nH]3)cnc2SC2CCCCC2)n1", "note": "[Compound No. 5, 3-(cyclohexylsulfanyl)-N-(1-methyl-1H-pyrazol-3-yl)-6-(4H-1,2,4-triazol-3-ylsulfanyl)pyrazine-2-carboxamide]", "values": [{"measurement": "EC50", "setting": "human liver GK", "result": 171, "unit": "nM"}]}
{"smiles": "O=C(NC1=NCCS1)c1nc(Sc2nnc[nH]2)cnc1Sc1ccc(F)cc1", "note": "[Compound No. 25, N-(4,5-dihydro-1,3-thiazol-2-yl)-3-[(4-fluorophenyl)sulfanyl]-6-(4H-1,2,4-triazol-3-ylsulfanyl)pyrazine-2-carboxamide]", "values": [{"measurement": "EC50", "setting": "human liver GK", "result": 365, "unit": "nM"}]}
{"smiles": "Cn1ccc(NC(=O)c2nc(Sc3nnc[nH]3)cnc2Sc2ccncc2)n1", "note": "[Compound No. 24, N-(1-methyl-1H-pyrazol-3-yl)-3-(pyridin-4-ylsulfanyl)-6-(4H-1,2,4-triazol-3-ylsulfanyl)pyrazine-2-carboxamide]", "values": [{"measurement": "EC50", "setting": "human liver GK", "result": 110, "unit": "nM"}]}
{"smiles": "Cn1ccc(NC(=O)c2nc(Sc3nncs3)cnc2Sc2ccc(F)cc2)n1", "note": "[Compound No. 41, 3-[(4-fluorophenyl)sulfanyl]-N-(1-methyl-1H-pyrazol-3-yl)-6-(1,3,4-thiadiazol-2-ylsulfanyl)pyrazine-2-carboxamide]", "values": [{"measurement": "EC50", "setting": "human liver GK", "result": 311, "unit": "nM"}]}
{"smiles": "COCCn1ccc(NC(=O)c2nc(Sc3nnc(C)[nH]3)cnc2Sc2ccc(F)cc2)n1", "note": "[Compound No. 30, 3-[(4-fluorophenyl)sulfanyl]-N-[1-(2-methoxyethyl)-1H-pyrazol-3-yl]-6-[(5-methyl-4H-1,2,4-triazol-3-yl)sulfanyl]pyrazine-2-carboxamide]", "values": [{"measurement": "EC50", "setting": "human liver GK", "result": 397, "unit": "nM"}]}
{"smiles": "Cc1nnc(Sc2cnc(Sc3ccc(S(C)(=O)=O)cc3)c(C(=O)Nc3ccn(C)n3)n2)[nH]1", "note": "[Compound No. 52, N-(1-methyl-1H-pyrazol-3-yl)-3-{[4-(methylsulfonyl)phenyl]sulfanyl}-6-[(5-methyl-4H-1,2,4-triazol-3-yl)sulfanyl]pyrazine-2-carboxamide]", "values": [{"measurement": "Emax", "setting": "human liver GK; GK activity of DMSO control = 100%, 2 mM ATP, read-out: Emax (maximum activation value)", "result": 883, "unit": "%"}, {"measurement": "EC50", "setting": "human liver GK", "result": 128, "unit": "nM"}]}
{"smiles": "CSc1ccc(Sc2ncc(Sc3nnc(N)[nH]3)nc2C(=O)Nc2cnccn2)cc1", "note": "[Compound No. 51, 6-[(5-amino-4H-1,2,4-triazol-3-yl)sulfanyl]-3-{[4-(methylsulfanyl)phenyl]sulfanyl}-N-pyrazin-2-ylpyrazine-2-carboxamide]", "values": [{"measurement": "EC50", "setting": "human liver GK", "result": 131, "unit": "nM"}]}
{"smiles": "Cc1nnc(Sc2cnc(Sc3ccc(F)cc3)c(C(=O)Nc3ccn(C)n3)n2)[nH]1", "note": "[Compound No. 38, 3-[(4-fluorophenyl)sulfanyl]-N-(1-methyl-1H-pyrazol-3-yl)-6-[(5-methyl-4H-1,2,4-triazol-3-yl)sulfanyl]pyrazine-2-carboxamide]", "values": [{"measurement": "EC50", "setting": "human liver GK", "result": 117, "unit": "nM"}]}
{"smiles": "O=C(Nc1cnccn1)c1nc(Sc2nnc[nH]2)cnc1Sc1ccc(F)cc1", "note": "[Compound No. 29, 3-[(4-fluorophenyl)sulfanyl]-N-(pyrazin-2-yl)-6-(4H-1,2,4-triazol-3-ylsulfanyl)pyrazine-2-carboxamide]", "values": [{"measurement": "EC50", "setting": "human liver GK", "result": 89.5, "unit": "nM"}]}
